Literature values as cited in patent US9314021B2, “Formulations containing insect repellent compounds” (E I DU PONT DE NEMOURS AND COMPANY, priority 2004, dated 2016).

System: ant species Monomorium destructor
Settings: pure undiluted compound; after 25 seconds of exposure; during feeding

CC1COC(=O)C2C(C)CCC12 (stereo not shown) [dihydronepetalactone]
ants ceased to feed: 50-60%
